# Assay results as given in patent publication US12357629B2, “Uses of BCL-2 antagonists for treating cancer and diagnostics related thereto” (Emory University, priority 2018, dated 2025).
# Entries after “also recorded” stand apart in the source; their conditions may differ. Where two headings read alike, the source gives them in different places.
# What was measured:
# [1] = system: ABT-199 resistant MM lines (KMS11, L363, RPMI-8226, MM.1S, U266)
# Description: Complex I inhibition with piercidin or SDHA inhibition with 3-NPA. L363, MM.15 and KMS 11 cells were cultured in the presence or absence of 0.S μM ABT-199 with or without either Complex I inhibitor piericidin (0.001 mM) or Complex II inhibitor 3NPA (1 mM) or TTFA (100 μM) for 24 hrs.
# KMS11, L363, RPMI-8226, MM.1S, U266 (ABT-199 resistant cell lines) and KMS12PE and OCIMY5 (ABT-199 sensitive cell lines) were cultured in presence of SQR inhibitor TTFA (100 uM) or DEX (0.5 uM) either alone or in combination with ABT-199 (0.5 uM) for 24 hrs. Cell viability was assessed by Annexin V-DAPI staining and Flow cytometry.
# Resistant MM lines were treated with TTFA and/or a dose range of ABT-199 and cell death evaluated by Annexin V/DAPI staining.
# [2] = system: MM patients exhibiting the (11;14) translocation; conditions: t(11;14) patients, cited from earlier work
# [3] = system: normal cell populations contained within the bone marrow aspirate of patient sample; experiment: Cytotoxicity in normal cells within myeloma patient sample; type: cell-based
# Excerpt: Synthetic lethality are not cytotoxic as a single agent in cell lines or primary normal cells associated with a myeloma patient sample.
# [4] = system: CD38+ve MM cells from myeloma patient samples; experiment: Cytotoxicity in myeloma patient sample cells; type: cell-based, human; conditions: TTFA with ABT-199
# [5] = system: BIM, BIM-Bcl-2 binding, Foxo3a; experiment: Protein expression and co-immunoprecipitation analyses upon SDH inhibition; type: cell-based
# Excerpt: Thus, a tumor selective approach of metabolically-driven synthetic lethality relies on inhibition of the mitochondrial enzyme SDH and use of the Bcl-2 antagonist, e.g., ABT-199 for myeloma therapy.
# [6] = molecular target: Complex II/SDH succinate ubiquinone reductase (SQR) activity (Homo sapiens, UniProt O14521+P21912+P31040+Q99643); experiment: SQR (succinate ubiquinone reductase) activity assay in permeabilized cells, DCPIP absorbance at 600 nm; conditions: for SQR activity upon addition of inhibitor: KMS11 cells, 20 mM succinate as substrate, malonate 5 mM
# Description: Cells are resuspended in permeabilization buffer (10 mM KH2PO4 pH 7.8, 2 mM EDTA and 1 mg/ml BSA). 20 mM succinate is added as a substrate with or without 5 mM malonate (an SDH inhibitor) followed by a 10 min incubation at RT. SQR activity is determined by measuring electron transfer from succinate to decylubiquinone and 2,6-dichlorophenolindophenol (DCPIP) that leads to a change in absorbance of DCPIP monitored at 600 nm for 10 min.
# SQR activity is measured in live permeabilized cells, with intact mitochondria by pre-treating with inhibitors of Complex I (rotenone) and Complex III (antimycin) leaving Complex II/SDH activity intact. SQR activity correlates with electron transfer from ubiquinone bound in SQR's Qp site to the redox sensitive dye, DCIPIP.
# [7] = ABT-199 0.5 μM with TTFA 100 μM, piericidin 0.001 mM or 3NPA 1 mM, 24 hrs, Annexin V/DAPI
# Complex II/SDH succinate ubiquinone reductase (SQR) activity, sequence (P31040 43-664): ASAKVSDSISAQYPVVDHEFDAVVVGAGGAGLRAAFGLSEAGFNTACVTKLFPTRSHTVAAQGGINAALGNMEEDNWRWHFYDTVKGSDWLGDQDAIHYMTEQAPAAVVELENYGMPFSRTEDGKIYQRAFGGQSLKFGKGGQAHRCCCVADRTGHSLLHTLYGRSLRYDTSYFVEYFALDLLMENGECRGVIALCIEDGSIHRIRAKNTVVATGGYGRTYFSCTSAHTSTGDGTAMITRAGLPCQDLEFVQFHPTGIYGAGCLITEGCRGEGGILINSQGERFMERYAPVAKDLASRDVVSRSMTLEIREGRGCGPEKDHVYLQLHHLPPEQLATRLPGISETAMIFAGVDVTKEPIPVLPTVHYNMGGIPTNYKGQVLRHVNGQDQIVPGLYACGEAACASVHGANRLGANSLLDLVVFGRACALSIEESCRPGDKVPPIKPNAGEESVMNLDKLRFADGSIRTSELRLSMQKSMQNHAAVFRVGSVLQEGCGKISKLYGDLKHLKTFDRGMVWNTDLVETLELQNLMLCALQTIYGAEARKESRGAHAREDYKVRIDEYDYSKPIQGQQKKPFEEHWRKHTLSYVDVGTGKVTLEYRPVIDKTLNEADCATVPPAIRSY
# Complex II/SDH succinate ubiquinone reductase (SQR) activity, sequence (P21912 29-280): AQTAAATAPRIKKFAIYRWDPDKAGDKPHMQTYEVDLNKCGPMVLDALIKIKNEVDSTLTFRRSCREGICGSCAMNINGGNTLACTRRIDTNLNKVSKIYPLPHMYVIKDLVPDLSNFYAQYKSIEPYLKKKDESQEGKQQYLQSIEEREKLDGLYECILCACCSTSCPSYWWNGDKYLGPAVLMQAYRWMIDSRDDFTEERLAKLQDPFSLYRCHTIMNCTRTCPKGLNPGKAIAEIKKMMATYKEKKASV
# Complex II/SDH succinate ubiquinone reductase (SQR) activity, sequence (Q99643 30-169): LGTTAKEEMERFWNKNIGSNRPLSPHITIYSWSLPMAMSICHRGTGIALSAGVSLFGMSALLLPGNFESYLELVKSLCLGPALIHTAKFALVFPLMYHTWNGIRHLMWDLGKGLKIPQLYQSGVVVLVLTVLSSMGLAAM
# Complex II/SDH succinate ubiquinone reductase (SQR) activity, sequence (O14521 57-159): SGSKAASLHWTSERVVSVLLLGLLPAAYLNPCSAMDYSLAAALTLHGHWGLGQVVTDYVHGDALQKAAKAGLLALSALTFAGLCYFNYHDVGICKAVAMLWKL
compound,measurement,setting,value
O=C(O)CC[N+](=O)[O-] [3-NPA],Sensitization of resistant MM cell lines to ABT-199,[1]; [7],not as effective
same,Sensitization of resistant MM cell lines to ABT-199,"[1]; ABT-199 0.5 μM with TTFA 100 μM, piericidin 0.001 mM or 3NPA 1 mM, 24 hrs, Annexin V/DAPI, listed as 3NPA",not as effective as TTFA
"CC1(C)CCC(CN2CCN(c3ccc(C(=O)NS(=O)(=O)c4ccc(NCC5CCOCC5)c([N+](=O)[O-])c4)c(Oc4cnc5[nH]ccc5c4)c3)CC2)=C(c2ccc(Cl)cc2)C1 [ABT-199, 4-(4-{[2-(4-chlorophenyl)-4,4-dimethylcyclohex-1-en-1-yl]methyl}piperazin-1-yl)-N-({3-nitro-4-[(tetrahydro-2H-pyran-4-ylmethyl)amino]phenyl}sulfonyl)-2-(1H-pyrrolo[2,3-b]pyridin-5-yloxy)benzamide]",Share of t(11;14) MM patients responsive to single agent,[2]; listed as venetoclax,About 40%
same,Share of t(11;14) MM patients responsive to single agent,[2],40%
same,Cytotoxicity as single agent in MM,[1]; individually,did not elicit cytotoxicity
same,Cytotoxicity in normal cells of myeloma patient sample,[3]; bone marrow aspirate of patient sample #2,did not exhibit significant cytotoxicity
"O=C(CC(=O)C(F)(F)F)c1cccs1 [TTFA, 4,4,4-trifluoro-1-(thiophen-2-yl)butane-1,3-dione]",Sensitization of MM patient cells to ABT-199,[4],potent sensitization; also recorded: sensitizes
same,Cytotoxicity as single agent in MM,[1],did not elicit cytotoxicity
same,Sensitization of resistant MM cell lines to ABT-199,[1],potent sensitization; also recorded: sensitizes MM cells to ABT-199; also recorded: sensitized resistant MM cells to ABT-199
same,Effect on Dex-induced death,"[1]; TTFA 100 uM, DEX 0.5 uM, ABT-199 0.5 uM, 24 hrs",additive to Dex-induced death
same,BIM expression,[5]; SDH inhibition with TTFA,induction of BIM
same,BIM-Bcl-2 binding (co-immunoprecipitation),[5]; SDH inhibition with TTFA,enhanced BIM-Bcl-2 binding
same,Foxo3a localization,[5]; TTFA treated cells,nuclear localization
same,Foxo3a phosphorylation,[5]; TTFA treated cells,reduction of Foxo3a phosphorylation
same,Cytotoxicity in normal cells of myeloma patient sample,[3],did not exhibit significant cytotoxicity
same,SQR activity upon addition of inhibitor,[6],lack of activity
same,SQR activity at maximal dose of TTFA that did not cause cytotoxicity in MM,[6]; MM cells,inhibited SQR activity
"COc1[nH]c(=O)c(C(=O)C(C)CC(C)C(Cl)CCl)c(O)c1OC (centres unmarked) [atpenin A5, 3-[5,6-dichloro-2,4-dimethylhexanoyl]-4-hydroxy-5,6-dimethoxy-1H-pyridin-2-one]",Sensitization of resistant MM cell lines to ABT-199,[1]; [7],sensitizes resistant cell lines
C/C=C(\C)[C@H](O)[C@H](C)/C=C(C)/C=C/C/C(C)=C/Cc1nc(OC)c(OC)c(O)c1C [piericidin],Sensitization of resistant MM cell lines to ABT-199,[1]; [7],not as effective
malonate,SQR activity upon addition of inhibitor,[6],lack of activity
